Results published in US20120129927A1, “New Anthraquinone Derivatives” (SEALIFE PHARMA GMBH, priority 2009, published 2012).
Values after ≈ are worked out from the molar mass of the structure shown. “Also recorded” adds a separate entry of the source. Read-outs that look alike come from different tables or passages of the source.

Legend:
[1] = Yagi et al., Phytochemistry 34(4); cited from earlier work
bacteria and fungi = details: Aly et al., Phytochemistry 69; cited from earlier work
[2] = test system: Enterococcus faecalis or faecium; assay: MIC test (titration method, EUCAST); format: cell-based; details: for MIC: read-out: MHK (MIC) EK
Description: (§1) The activities of the novel compounds were tested in two different screening systems. The antibacterial and antifungal activities were examined by means of an MIC test, MIC standing for “minimal inhibitory concentration” and referring to the lowest concentration of a substance at which no proliferation of microorganisms can be observed with the naked eye. The MIC is determined by means of a so called titration method in which the substance is diluted and, subsequently, the pathogen is added to it.
(§2) Usually, this method is applied in order to determine the concentration of an antibiotic which only just inhibits the growth of a bacterial strain. The MIC is indicated in micrograms per milliliter (μg/ml), and the dilutions are conventionally carried out in log 2 steps. Herein, a starting concentration of 250 μg/ml was diluted several times, to the double volume in each case, resulting in test concentrations of 250 μg/ml, 125 μg/ml, 62.5 μg/ml, 31.2 μg/ml, 15.6 μg/ml, 7.8 μg/ml, etc. Thus, lower values indicate a better activity as an anti-infective.
(§3) The tests were carried out according to the standards of EUCAST (European Committee for Antimicrobial Susceptibility Testing) and according to the AFST-protocol (“Antifungal Susceptibility Testing” protocol) of the European Society of Clinical Microbiology and Infectious Diseases (ESCMID).
(§4) In the following Table 3, the test results indicating the anti-infective action of 3-O-acetyl altersolanol M, alterporriol I and J as well as of some known and structurally similar comparative substances against some multi-resistant bacteria and fungi (all of which were kindly placed at our disposal by Prof Georgopulos from the Medical University of Vienna). The data constituting averages of the values obtained in multiple test runs.

Staphylococcus epidermis = assay: MIC test (titration method, EUCAST); format: cell-based; details: for MIC: read-out: MHK (MIC) SE
Description: as §1, §2, §3, §4

Streptococcus pneumoniae = assay: MIC test (titration method, EUCAST); format: cell-based; details: for MIC: read-out: MHK (MIC) STR
Description: as §1, §2, §3, §4

[3] = test system: methicillin-resistant Staphylococcus aureus; assay: MIC test (titration method, EUCAST); format: cell-based; details: for MIC: MRSA, read-out: MHK (MIC) MRSA
Description: as §1, §2, §3, §4

[4] = test system: Aspergillus fumigatus or faecalis; assay: MIC test (AFST protocol); format: cell-based; details: multi-resistant Aspergillus fumigatus or faecalis, averages of multiple test runs; for MIC: read-out: MHK (MIC) ASP
Description: as §1, §2, §3, §4

E. coli = assay: MIC test (titration method, EUCAST); format: cell-based; details: Escherichia coli, read-out: MHK (MIC) EC
Description: as §1, §2, §3, §4

Klebsiella sp. = assay: MIC test (titration method, EUCAST); format: cell-based; details: multi-resistant Klebsiella sp., averages of multiple test runs
Description: as §1, §2, §3, §4

Pseudomonas aeruginosa = assay: MIC test (titration method, EUCAST); format: cell-based; details: multi-resistant Pseudomonas aeruginosa, averages of multiple test runs
Description: as §1, §2, §3, §4

melanoma cells [5] = assay: Alamar Blue assay using melanoma cells; format: cell-based; details: for inhibition at 10 µg/mL: read-out: inhibition / reduction of the number of melanoma cells
Description: In this test, the dye resazurin is used as an indicator for measuring the cytotoxicity of substances. […] Depending on the degree of their toxicity, cytotoxic agents decelerate or stop this reduction.
In the course of this experiment, melanoma cells were treated with several concentrations of 3-O-acetyl altersolanol M, i.e. with 1, 10, and 50 μg/ml, with altersolanol K and alterporriol F as comparative substances, as well as with alterporriol I+J, i.e. compound (5) of the present invention, at respective concentrations of 10 μg/ml, and incubated for 48 h, whereafter the samples' fluorescence was determined spectrophotometrically at 570/600 nm, the fluorescence being proportional to the number of surviving cells in the samples.
The measurement results were related to the fluorescence of a blank, to which no cytotoxic agent had been added, and are shown in a graph in FIG. 1.

[6] = Electrical Cell Substrate Impedance Sensing (ECIS) test; format: cell-based; details: results not indicated, comparison only
melanoma cells [7] = assay: Three-dimensional tumor test in matrix gel; format: cell-based; details: 30, 50 or 3,000 μg/ml, 37° C.
Description: In addition to the above two-dimensional test, the cytotoxic action of 3-O-acetyl altersolanol M was also examined in an innovative three-dimensional test system. In this test, small tumors are grown in a matrix gel, in which the activity of an anti-cancer agent may be directly tested by adding said agent at different concentrations. A blank, i.e. melanoma cells without any cytotoxic agent, and an equal amount of melanoma cells together with 30, 50 or 3,000 μg/ml of 3-O-acetyl altersolanol M were incubated in the matrix gel for 120 hours at 37° C.

[8] = test system: Gram-positive bacteria and the Gram-negative species Pseudomonas aeruginosa; details: Okamura et al., Phytochemistry 42(1); cited from earlier work
[9] = multi-resistant Enterococcus faecalis or faecium, averages of multiple test runs
[10] = multi-resistant Staphylococcus epidermis, averages of multiple test runs
[11] = multi-resistant Streptococcus pneumoniae, averages of multiple test runs
[12] = methicillin-resistant Staphylococcus aureus, averages of multiple test runs
[13] = multi-resistant E. coli, averages of multiple test runs
[14] = 10 μg/ml, 48 h, relative to blank

## COc1cc(O)c2c(c1)C(=O)C1=C(C[C@@H](O)[C@@](C)(O)[C@@H]1O)C2=O [altersolanol C]
[1]
  anti-microbial activity: anti-microbial activity

## COc1cc(O)c2c(c1)[C@H](O)[C@@H]1[C@@H](C2=O)[C@H](O)[C@@H](O)[C@@](C)(O)[C@@H]1O [Ampelanol]
Bacteria and fungi
  activity against bacteria and fungi: do not show any activity against bacteria and fungi

## altersolanol F
[1]
  anti-microbial activity: completely ineffective

## Alterporriol A + B
[2]; [9]
  MHK (MIC) EK: 15.6 µg/mL
Staphylococcus epidermis; [10]
  MHK (MIC) SE: 15.6 µg/mL
Streptococcus pneumoniae; [11]
  MHK (MIC) STR: 7.8 µg/mL
[3]; [12]
  MHK (MIC) MRSA: 15.6 µg/mL
[4]
  MHK (MIC) ASP: 62.5 µg/mL

## alterporriol E
Bacteria and fungi
  activity against bacteria and fungi: do not show any activity against bacteria and fungi

## COc1cc(O)c2c(c1)C(=O)C1=C(C2=O)[C@@H](O)[C@H](OC(C)=O)[C@@](C)(O)[C@@H]1O [Example 1, (1R,2S,3S,4R)-3-acetoxy-1,2,4,5-tetrahydroxy-7-methoxy-2-methyl-1,2,3,4-tetrahydroanthracene-9,10-dione]
E. coli; [13]
  MIC: 125 µg/mL (≈ 330 µM)
[2]; [9]
  MIC: 7.8 µg/mL (≈ 20.6 µM)
Klebsiella sp.; read-out: MHK (MIC) KL
  MIC: 125 µg/mL (≈ 330 µM)
Pseudomonas aeruginosa; read-out: MHK (MIC) PS
  MIC: 125 µg/mL (≈ 330 µM)
Staphylococcus epidermis; [10]
  MIC: 7.8 µg/mL (≈ 20.6 µM)
Streptococcus pneumoniae; [11]
  MIC: 7.8 µg/mL (≈ 20.6 µM)
[3]; [12]
  MIC: 7.8 µg/mL (≈ 20.6 µM)
[4]
  MIC: 62.5 µg/mL (≈ 165 µM)
Melanoma cells [5]; 1 μg/ml, 48 h, relative to blank, read-out: inhibition of the number of surviving cells
  inhibition at 1 µg/mL: > 10%
Melanoma cells [5]; [14]
  inhibition at 10 µg/mL: ~50%
Melanoma cells [5]; 50 μg/ml, 48 h
  surviving cells (in words): hardly possible to detect any surviving cells
Melanoma cells [5]; Alamar Blue, melanoma cells
  cytotoxic effectiveness relative to alterporriol I/J: at least 10 times
[6]
  ECIS result (in words): clearly better results than alterporriol I/J
Melanoma cells [7]; 24 hours
  tumor appearance after 24 hours: signs of degeneration
Melanoma cells [7]; 120 hours
  tumor size after 120 hours: clearly reduced in size

## COc1cc(O)c2c(c1)C(=O)C1=C(C2=O)[C@H](O)[C@@H](O)[C@@](C)(O)[C@@H]1O [Altersolanol A, 7-methoxy-2-methyl-(1R,2S,3R,4S)-1,2,3,4-tetrahydro-1,2,3,4,5-pentahydroxy-anthracene-9,10-dione]
E. coli; [13]
  MIC: 62.5 µg/mL (≈ 186 µM)
[2]; [9]
  MIC: 15.6 µg/mL (≈ 46.4 µM)
Staphylococcus epidermis; [10]
  MIC: 7.8 µg/mL (≈ 23.2 µM)
Streptococcus pneumoniae; [11]
  MIC: 7.8 µg/mL (≈ 23.2 µM)
[3]; [12]
  MIC: 7.8 µg/mL (≈ 23.2 µM)
[4]
  MIC: 7.8 µg/mL (≈ 23.2 µM)
Bacteria and fungi
  activity against bacteria and fungi: the most efficient of the tested substances
[1]
  anti-microbial activity: anti-microbial activity

## COc1cc(O)c2c(c1-c1c(OC)cc(O)c3c1C(=O)c1cc(C)c(O)c(O)c1C3=O)C(=O)C1=C(C2=O)[C@H](O)[C@@H](O)[C@@](C)(O)[C@H]1O [Example 2, 8-(4,5,6-trihydroxy-7-methyl-2-methoxy-9,10-dioxo-9H,10H-anthracen-1-yl)-(1S,2S,3R,4S)-1,2,3,4,5-pentahydroxy-7-methoxy-2-methyl-1,2,3,4-tetrahydro-9H,10H-anthracene-9,10-dione]
[2]; [9]
  MIC: 7.8 µg/mL (≈ 12.3 µM)
Staphylococcus epidermis; [10]
  MIC: 7.8 µg/mL (≈ 12.3 µM)
Streptococcus pneumoniae; [11]
  MIC: 7.8 µg/mL (≈ 12.3 µM)
[3]; [12]
  MIC: 7.8 µg/mL (≈ 12.3 µM)
[4]
  MIC: 125 µg/mL (≈ 197 µM)
Melanoma cells [5]; 10 μg/ml, 48 h
  result compared with comparative substances (in words): slightly better results than the two comparative examples
Melanoma cells [5]; [14]
  inhibition at 10 µg/mL: > 10%

## Indole carbaldehyde (carboxaldehyde)
Pseudomonas aeruginosa
  MHK (MIC) PS: 125 µg/mL
Streptococcus pneumoniae; [11]
  MHK (MIC) STR: 62.5 µg/mL

## COc1cc(O)c2c(c1)[C@H](O)[C@H]1C[C@](C)(O)[C@H](O)C[C@@H]1C2=O [tetrahydroaltersolanol B]
[8]
  effect against Gram-positive bacteria and Pseudomonas aeruginosa: do not disclose any effect

## COc1cc(O)c2c(c1)C(=O)[C@H]1C[C@](C)(O)[C@H](O)C[C@@H]1[C@H]2O [Altersolanol J]
[2]; [9]
  MHK (MIC) EK: 31.2 µg/mL
Klebsiella sp.
  MHK (MIC) KL: 125 µg/mL
Staphylococcus epidermis; [10]
  MHK (MIC) SE: 62.5 µg/mL
Streptococcus pneumoniae; [11]
  MHK (MIC) STR: 15.6 µg/mL
[3]; [12]
  MHK (MIC) MRSA: 62.5 µg/mL
[4]
  MHK (MIC) ASP: 125 µg/mL
Bacteria and fungi
  activity against bacteria and fungi: do not show any activity against bacteria and fungi

## COc1cc(O)c(C(=O)O)c(-c2cc(O)c(O)cc2C)c1 [Altenusin]
E. coli
  MIC: 62.5 µg/mL (≈ 215 µM)
[2]; Enterococcus faecalis
  MIC: 62.5 µg/mL (≈ 215 µM)
Staphylococcus epidermis; Staphylococcus
  MIC: 31.2 µg/mL (≈ 107 µM)
Streptococcus pneumoniae; Streptococcus pneumoniae
  MIC: 31.2 µg/mL (≈ 107 µM)
[3]; Staphylococcus aureus
  MIC: 31.2 µg/mL (≈ 107 µM)

## COc1cc(O)c2c(c1-c1c(OC)cc(O)c3c1C(=O)C1=C(C3=O)[C@H](O)[C@@H](O)[C@@](C)(O)[C@@H]1O)C(=O)C1=C(C2=O)[C@H](O)[C@@H](O)[C@@](C)(O)[C@@H]1O [alterporriol D]
Bacteria and fungi
  activity against bacteria and fungi: do not show any activity against bacteria and fungi

## Macrosporin sulfate
Streptococcus pneumoniae; [11]
  MHK (MIC) STR: 31.2 µg/mL

## altersolanol D
[1]
  anti-microbial activity: completely ineffective

## altersolanol E
[1]
  anti-microbial activity: anti-microbial activity; also recorded: completely ineffective

## COc1cc(O)c2c(c1)C(=O)c1cc(C)c(O)cc1C2=O [Macrosporin]
E. coli; [13]
  MIC: 62.5 µg/mL (≈ 220 µM)
Staphylococcus epidermis; [10]
  MIC: 62.5 µg/mL (≈ 220 µM)
[3]; [12]
  MIC: 62.5 µg/mL (≈ 220 µM)

## COC1=CC(=O)c2c(O)c3c(c(O)c2C1=O)C[C@](C)(O)[C@H](O)[C@H]3O [Bostrycin]
Staphylococcus epidermis; [10]
  MIC: 125 µg/mL (≈ 372 µM)
Streptococcus pneumoniae; [11]
  MIC: 62.5 µg/mL (≈ 186 µM)
[3]; [12]
  MIC: 125 µg/mL (≈ 372 µM)

## COc1cc(O)c2c(c1)C(=O)C1=C(C[C@@H](O)[C@@](C)(O)C1)C2=O [altersolanol B]
[1]
  anti-microbial activity: anti-microbial activity
